# Test results as given in publication PMC6269653, “Stability and Antioxidant Activity of Semi-synthetic Derivatives of 4-Nerolidylcatechol” (Molecules, 2012).
# pIC50: −log10 of the molar value. Several values for one entry are separate records, joined by “and”; a condition that tells them apart may be missing. Identical values can stand only once. Entries after “also recorded” stand apart in the source; their conditions may differ. Like-named read-outs stand apart in the source and are kept apart here. Marks after values point to notes of the source that are not given here.
# How the values were obtained:
# [1] = ABTS radical-scavenging activity; type: biochemical; conditions: compounds tested at 250 µM, mean ± standard deviation, n = 3
# Description: The ABTS assay used herein was based on the method of Re et al. with slight modifications. Substances at concentrations of 250 µM, BHT or BHA were added to dilute ABTS solution and the absorbance at […] was measured. The antioxidant activity was calculated using the equation: % inhibition = 100 × (1 − sample abs/control abs).
# [2] = DPPH radical-scavenging activity; type: biochemical; conditions: compounds tested at 250 µM, mean ± standard deviation, n = 3
# Description: The measurement of the scavenger activity of DPPH• was carried out according to the method of Molineux with modifications. Substances at 250 µM were added, at an equal volume, to the methanol solution of DPPH• ([…]). After 15 min at room temperature, the absorbance was recorded at 517 nm (sample abs). The experiment was repeated three times. BHT, BHA were used as controls. Values denote percentage of DPPH free radical inhibition. The antioxidant activity was calculated using the equation: % inhibition = 100 × (1 − sample abs/control abs).
# [3] = tested on: Mouse embryonic fibroblast cells (3T3L1 line); experiment: Cell viability assay (alamar blue); type: cell-based; conditions: ‡ >50 µg/mL, read-out: Toxicity Mouse embryonic fibroblast cells (3T3L1 line) (IC50)
# Description: The cytotoxicity of 4-NC and derivatives of 4-NC 1–8 to mouse embryonic fibroblast line 3T3L1 was evaluated using alamar blue to measure cell survival/proliferation. The substances at different concentrations (12.5, 25 and 50 µM) were separately incubated with cells and the number of viable cells was counted after 24, 48 and 72 h. […] O,O-Dibenzyl 4-NC (1) was not active (i.e. not toxic to A. franciscana) in the brine shrimp assay (Table 1).
# 3T3-L1 cells (mouse embryonic fibroblasts) were obtained from the Cell Bank of Rio de Janeiro, Brazil and were maintained in Dulbecco’s Modified Eagle Medium (DMEM) which was supplemented with 10% fetal bovine serum (FBS), penicillin (100 U/mL) and streptomycin (100 U/mL). The cells were incubated at 37 °C in a humidified atmosphere containing 5% of CO2.
# The cytotoxicity of 4-NC and its semi-synthetic derivatives 1–8 to the 3T3L1 mouse embryonic fibroblast cell line fibroblasts was determined by the alamar blue method as described by Nakayama and co-workers. The alamar blue assay is a colorimetric assay involving the cellular reduction of resazurin to resorufin. Briefly, adherent cells (5 × 10^3 cells/well) were grown in 96-well tissue culture plates and exposed to substances (50, 25 and 12.5 μM) for 24, 48 and 72 h. After incubation, the alamar blue solution (10 µL of 0.4% alamar blue (resazurin) in PBS) was added and the cells were incubated for 2 h at 37 °C. Fluorescence was measured (excitation at 545 nm and emission at 595 nm) and expressed as a percentage of the cells in the control after background fluorescence was subtracted. The assays were performed in triplicate.
# [4] = tested on: 3T3L1 mouse embryonic fibroblast cell line; experiment: Cellular antioxidant activity (oxidation of DCFH-DA); type: cell-based; set-up: inhibition of the oxidation of DCFH-DA in 3T3L1 cells: concentration or dose not given beside the values; conditions: for loss of antioxidant activity after storage: DMSO solution stored at −20 °C for 30 days; for inhibition of the oxidation of DCFH-DA in 3T3L1 cells: over the observation period of 60 min
# Description: These tests evaluate the reducing effect of a given substance on the radical species formed in situ during these assays leading to a decrease in color versus controls that is measured spectrophotometrically. […] Thus, at a concentration of 250 µM, 4-NC inhibited DPPH• and ABTS+• by 97% and 95%, respectively. Mono-O-substituted 4-NC derivatives 2–5 inhibited ABTS+• by 89–93%. […] The antioxidant activity was also evaluated in mouse embryonic 3T3L1 fibroblasts. In this assay DCFH-DA (2',7'-dichlorofluorescein diacetate) is hydrolyzed by intracellular esterases and then oxidized by reactive oxygen species (ROS) to the fluorescent compound 2'-7'-DCF. An active antioxidant substance can inhibit the transformation of fatty acids to fatty acid hydroperoxides in the cell membranes and thereby inhibit the oxidation of DCFH-DA.
# The antioxidant activity of 4-NC and semi-synthetic derivatives of 4-NC was evaluated on the 1st and 30th days after dissolving the substances in DMSO at a concentration of 10 mM and storage in a freezer at −20 °C. This experiment permitted the evaluation of the relative stability of the antioxidant activity of 4-NC, derivatives of 4-NC, BHT and BHA. Thus, cellular antioxidants were evaluated using the mouse embryonic fibroblast 3T3L1 cell line. […] The presence of mono-O or di-O,O substituent groups in the 4-NC derivatives can confer stability relative to 4-NC. Such chemical stability is highly desirable when contemplating the use of such substances in cosmetic and pharmaceutical formulations and foods. Here, 4-NC dissolved in DMSO lost more than 80% of its antioxidant activity after 30 days in the freezer.
# Intracellular ROS production was detected using the non-fluorescent cell permeating compound, 2'7'-dichlorofluorescein diacetate (DCF-DA), as described by Wolfe and Liu. DCF-DA is hydrolyzed by intracellular esterases and then oxidized by hydroperoxides into the fluorescent compound, 2'-7'-DCF. 3T3-L1 cells were seeded at a density of 6 × 10^4 cells/well in a 96-well microplate in 100 μL of growth medium. 24 h after seeding, the growth medium was removed and the wells were washed with PBS. Then, a 10 μM solution of DCFH-DA dissolved in Hank’s buffer (100 μL) was added to wells and incubated for 30 min at 37 °C and 5% CO2. The cells were washed first with PBS (100 μL) then EEP (100 µL) and samples having different concentrations were added. The fluorescence was immediately measured at an excitation wavelength of 485 nm and emission wavelength of 520 nm over 60 min at 5 min intervals. Controls with/without DCFH-DA were prepared and subjected to analogous procedures. Quercetin, BHA and BHT were used as positive controls of antioxidant activity.
# [5] = tested on: melanoma cell lines (SK-Mel-28, 103 and 147); set-up: method as in PMID 19059332; conditions: read-out: IC50 in vitro growth of melanoma cell lines; cited from earlier work
# normal fibroblast cells = tested on: normal fibroblast cells; set-up: method as in PMID 19059332; conditions: cited from earlier work
# Plasmodium falciparum = tested on: Plasmodium falciparum; set-up: method as in PMID 17568942; conditions: cited from earlier work
# Plasmodium berghei = conditions: cited from earlier work
# rat brain homogenates = tested on: rat brain homogenates; set-up: method as in ref 8 = [8]; 8. De Freitas P.C.D. Atividade Antioxidante de Espécies Medicinais da Família Piperaceae: Pothomorphe umbellata (L.) Miq. e Piper regnelli (Miq.) C. DC Ph.D. Thesis University of São Paulo (USP) São P; conditions: inhibition of spontaneous lipoperoxidation; cited from earlier work
# KB tumor cells = tested on: KB tumor cells; set-up: method as in PMID 10364848; conditions: cited from earlier work
# human topoisomerase I = tested on: human topoisomerase I; set-up: method as in PMID 10364848; conditions: cited from earlier work
# tumor cell lines = conditions: cited from earlier work
# Brine shrimp assay = experiment: Brine shrimp assay; set-up: species or system Artemia franciscana; conditions: Artemia franciscana (brine shrimp), in vivo, read-out: Toxicity Brine shrimp (Artemia franciscana) (LC50)
# Artemia franciscana = experiment: Brine shrimp assay; conditions: in vivo
# [6] = tested on: leukemia cells (HL-60 strain); set-up: method as in PMID 19084293; conditions: read-out: IC50 growth of leukemia cells; cited from earlier work
# [7] = tested on: colon tumor cells (HCT-8 strain), central nervous system tumor cells (SF295 strain) and leukemia cells (HL-60 strain); set-up: method as in PMID 19084293; conditions: HCT-8, SF295 and HL-60; read-out: cytotoxicity IC50; cited from earlier work
# [8] = † >500 µg/mL, 4 and 5 tested separately
# [9] = Mus musculus, 3T3-L1, alamar blue
Compound,ABTS (%) percentage of inhibition [1],DPPH• (%) percentage of inhibition [2],LC50 (Brine shrimp assay; [8]) [µM],cytotoxic activity against Artemia franciscana in the brine shrimp assay (Artemia franciscana),"pIC50 [3, 9]",other results
4-nerolidylcatechol [Compound 4-NC],–,–,–,–,–,ABTS (%) percentage of inhibition ([1]; 250 µM): 95% and 94.82 ± 0.22 ^a %; DPPH• (%) percentage of inhibition ([2]; 250 µM): 97% and 96.53 ± 0.50 ^a %; pIC50 ([3]; alamar blue): 4.50; loss of antioxidant activity after storage ([4]; 3T3L1 cells): more than 80%; inhibition of the oxidation of DCFH-DA in 3T3L1 cells [4]: ≥ 20%; pIC50 [5]: 4.40 to 4.70; pIC50 (normal fibroblast cells): 4.30; in vitro activity against Plasmodium falciparum (Plasmodium falciparum): high in vitro activity; in vivo activity in Plasmodium berghei-infected mice (Plasmodium berghei): low in vivo activity; also recorded: little activity; in vitro antioxidant activity relative to α-tocopherol (vitamin E) (rat brain homogenates): approximately 20 times; toxicity in vitro to KB tumor cells (KB tumor cells): toxic; inhibition of human topoisomerase I (human topoisomerase I): inhibits; pIC50 (tumor cell lines): 4.41 to 4.71
"COc1ccc(O)c(C(C)(C)C)c1 [BHA, butylated hydroxyanisole, reference compound]",94.71 ± 0.47 ^a %,–,–,–,–,DPPH• (%) percentage of inhibition ([2]; 250 µM): 98% and 97.97 ± 0.10 ^a %; loss of antioxidant activity after storage ([4]; 3T3L1 cells): ≥ 70%
"Cc1cc(C(C)(C)C)c(O)c(C(C)(C)C)c1 [BHT, butylated hydroxytoluene, reference compound]",93.13 ± 0.18 ^a %,–,–,–,–,"DPPH• (%) percentage of inhibition ([2]; 250 µM): 17% and 16.84 ± 0.81 ^c %; increase of antioxidant activity after storage ([4]; DMSO solution, 30 days of storage in the freezer, 3T3L1 cells): approximately 100%"
"C=CC(C)(CC/C=C(\C)CCC=C(C)C)c1ccc(OCc2ccccc2)c(OCc2ccccc2)c1 (centres unmarked) [Compound 1, O,O-Dibenzyl 4-NC]",7.97 ± 2.72 ^b %,4.35 ± 0.71 ^c %,> 1000,not active,< 4.00,activity against tumor cells (tumor cell lines): inactive
"C=CC(C)(CC/C=C(\C)CCC=C(C)C)c1ccc(OCc2ccccc2)c(O)c1 (centres unmarked) [Compound 2, 1-O-benzyl 4-NC]",91.12 ± 0.68 ^a %,44.20 ± 0.01 ^b %,1000,weak cytotoxic activity,–,activity against tumor cells (tumor cell lines): inactive
"C=CC(C)(CC/C=C(\C)CCC=C(C)C)c1ccc(O)c(OCc2ccccc2)c1 (centres unmarked) [Compound 3, 2O-monobenzyl derivative of 4-NC]",93.31 ± 0.30 ^a %,48.09 ± 1.33 ^b %,> 1200,weak cytotoxic activity,< 3.91,"pIC50 (tumor cell lines; read-out: cytotoxicity IC50 against four tumor cell lines, four tumor cell lines): 4.38 to 4.60"
"C=CC(C)(CC/C=C(\C)CCC=C(C)C)c1ccc(OC)c(O)c1 (centres unmarked) [Compound 4, 1O-monomethyl derivative of 4-NC]",–,–,600,weak cytotoxic activity,–,pIC50 [6]: 4.24
"C=CC(C)(CC/C=C(\C)CCC=C(C)C)c1ccc(O)c(OC)c1 (centres unmarked) [Compound 5, 2O-monomethyl 4-NC derivative]",–,–,1200,weak cytotoxic activity,–,pIC50 [7]: 4.20 to 4.36
"C=CC(C)(CC/C=C(\C)CCC=C(C)C)c1ccc(OC(=O)c2ccccc2)c(OC(=O)c2ccccc2)c1 (centres unmarked) [Compound 6, O,O-dibenzoyl 4-NC]",8.83 ± 0.23 ^b %,3.46 ± 0.63 ^c %,–,moderately toxic,< 4.02,LC50 (Brine shrimp assay): 69 µM; inhibition of the oxidation of DCFH-DA in 3T3L1 cells [4]: ≥ 20%; activity against tumor cells (tumor cell lines): inactive
C=CC(C)(CCC1OC1(C)CCC1OC1(C)C)c1ccc(OC(C)=O)c(OC(C)=O)c1 (centres unmarked) [Compound 8],0.31 ± 0.01 ^c %,7.39 ± 3.66 ^c %,–,–,< 3.94,inhibition of the oxidation of DCFH-DA in 3T3L1 cells [4]: ≥ 20%
"O=c1c(O)c(-c2ccc(O)c(O)c2)oc2cc(O)cc(O)c12 [Quercetin, quercetin, reference compound]",99.7 ± 0.02 ^a %,91.4 ± 0.12 ^a %,–,–,–,loss of antioxidant activity after storage ([4]; 3T3L1 cells): ≥ 70%
